Patent publication US20130266605A1, “PEPTIDE INHIBITORS OF CD40L SIGNALING AND USES THEREFOR” (PHYLOGICA LIMITED, priority 2010, published 2013)
“Also recorded” adds a separate entry of the source. Residues, ends and D or L forms follow the SMILES beside them.

What was measured:
TNFα-induced cytoxicity = test: TNFα-induced cytotoxicity control assay; assay type: cell-based; conditions: in words, specificity control
Method: (§1) As a control in these assays, LPS-induced expression of CD86 mediated by the Toll-like receptors TLR 2/4, and TNFα-induced cytoxicity, were also assayed to exclude effects mediated by ligands other than CD40L.

[1] = biological target: CD40L-induced CD86 expression on primary B-cells (UniProt P29965); test: Inhibition of CD40L-induced CD86 expression on primary B-cells (FACS); conditions: in words
Method: In one example, the ability of a peptide, analog or derivative of the invention to inhibit or reduce or delay expression of CD86 on primary B-cells was determined in the presence and absence of the peptides, analogs and derivatives of the invention. In particular, CD86 expression was determined by FACS.

[2] = system: LPS-induced expression of CD86 mediated by the Toll-like receptors TLR 2/4; test: LPS-induced CD86 expression control assay; assay type: cell-based; conditions: in words; specificity control; listed as M1—18S
Method: as §1

CD40L-induced CD86 expression on primary B-cells, sequence (P29965 whole entry): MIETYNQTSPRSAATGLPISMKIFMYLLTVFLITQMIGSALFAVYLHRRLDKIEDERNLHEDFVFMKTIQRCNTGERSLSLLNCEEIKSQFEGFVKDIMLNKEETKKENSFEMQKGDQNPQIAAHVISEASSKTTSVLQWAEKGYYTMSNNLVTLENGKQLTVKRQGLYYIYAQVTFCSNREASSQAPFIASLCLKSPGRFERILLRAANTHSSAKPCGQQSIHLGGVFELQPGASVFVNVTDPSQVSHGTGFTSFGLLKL
CD40L-induced CD86 expression on primary B-cells, sequence (P25942 21-277 partner): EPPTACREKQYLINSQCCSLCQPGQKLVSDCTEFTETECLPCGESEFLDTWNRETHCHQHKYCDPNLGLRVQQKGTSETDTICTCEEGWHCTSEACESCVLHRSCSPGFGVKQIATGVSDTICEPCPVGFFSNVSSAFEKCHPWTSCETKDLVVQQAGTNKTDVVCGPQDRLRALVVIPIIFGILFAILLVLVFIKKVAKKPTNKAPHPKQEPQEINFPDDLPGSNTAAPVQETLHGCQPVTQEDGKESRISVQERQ

## CC[C@H](C)[C@H](NC(=O)[C@H](CO)NC(=O)[C@H](Cc1c[nH]c2ccccc12)NC(=O)[C@H](CCC(N)=O)NC(=O)[C@@H](NC(=O)[C@@H]1CCCN1C(=O)[C@H](Cc1ccccc1)NC(=O)[C@H](Cc1ccccc1)NC(=O)[C@H](Cc1c[nH]c2ccccc12)NC(=O)CNC(=O)[C@H](Cc1ccc(O)cc1)NC(=O)[C@H](CCCCN)NC(=O)[C@H](CC(C)C)NC(=O)[C@@H](NC(=O)[C@H](Cc1c[nH]cn1)NC(=O)[C@H](CO)NC(=O)[C@H](CCCNC(=N)N)NC(=O)[C@H](Cc1ccc(O)cc1)NC(=O)[C@@H]1CCCN1C(=O)[C@@H](NC(=O)[C@H](Cc1ccccc1)NC(=O)[C@@H]1CCCN1C(=O)[C@@H](N)CC(C)C)C(C)C)C(C)C)C(C)C)C(=O)N[C@@H](Cc1ccccc1)C(=O)N[C@@H](C)C(=O)N[C@H](C(=O)N[C@@H](CC(C)C)C(=O)N1CCC[C@H]1C(=O)N[C@@H](Cc1ccccc1)C(=O)N[C@@H](CCC(N)=O)C(=O)N[C@@H](Cc1ccc(O)cc1)C(=O)N[C@@H](CC(C)C)C(=O)N[C@@H](Cc1c[nH]cn1)C(=O)N[C@@H](CCCNC(=N)N)C(=O)N[C@@H](CO)C(=O)N[C@@H](CCCNC(=N)N)C(=O)O)C(C)C [CD40L M1_18s] (H-LPFVPYRSHVLKYGWFFPVQWSIFAVLPFQYLHRSR-OH; N-terminus and C-terminus assumed)
TNFα-induced cytoxicity; listed as M1—18*S
  significant inhibition of TNFα-induced cell death / cytoxicity: lack of inhibition
TNFα-induced cytoxicity; listed as M1—18S
  significant inhibition of TNFα-induced cell death / cytoxicity: none
[1]
  inhibition of CD40L-induced CD86 expression on primary B-cells: concentration-dependent inhibition
[2]
  inhibition of LPS-induced CD86 expression: lack of concentration-dependent inhibition; also recorded: no significant inhibition
